Key:
Format in all cases: in vivo
[1] = test system: Kochia (Kochia scoparia); assay: Test A preemergence; details: Bassia scoparia, pre-emergence, 240 h, 0 to 100 scale where 0 is no effect and 100 is complete control, read-out: Kochia plant response rating; for pest or weed control at 31 g/ha: 31 g ai/ha, Preemergence; for pest or weed control at 125 g/ha: 125 g ai/ha, preemergence, visual injury rating, approximately 10 d
Method in brief: (§1)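 Visual injury, scored on a 0–100 scale relative to untreated controls, was recorded about 10 d after application. Treatments were a preemergence soil spray over planted seeds or a postemergence spray on plants at the one- to two-leaf stage, 2 to 10 cm tall, all in loam soil–sand blend in the greenhouse.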

[2] = test system: barnyardgrass (Echinochloa crus-galli); assay: Test A preemergence; details: Echinochloa crus-galli, pre-emergence, 240 h, 0 to 100 scale where 0 is no effect and 100 is complete control, read-out: Barnyardgrass plant response rating; for pest or weed control at 31 g/ha: 31 g ai/ha, Preemergence; for pest or weed control at 125 g/ha: 125 g ai/ha, preemergence, visual injury rating, approximately 10 d
Method in brief: as §1

[3] = test system: giant foxtail (Setaria faberii); assay: Test A preemergence; details: Setaria faberi, pre-emergence, 240 h, 0 to 100 scale where 0 is no effect and 100 is complete control, read-out: Foxtail, Giant plant response rating; for pest or weed control at 31 g/ha: 31 g ai/ha, Preemergence; for pest or weed control at 125 g/ha: 125 g ai/ha, preemergence, visual injury rating, approximately 10 d
Method in brief: as §1

[4] = test system: pigweed (Amaranthus retroflexus); assay: Test A preemergence; details: Amaranthus retroflexus, pre-emergence, 240 h, 0 to 100 scale where 0 is no effect and 100 is complete control, read-out: Pigweed plant response rating; for pest or weed control at 31 g/ha: 31 g ai/ha, Preemergence; for pest or weed control at 125 g/ha: 125 g ai/ha, preemergence, visual injury rating, approximately 10 d
[5] = test system: ragweed (common ragweed, Ambrosia elatior); assay: Test A preemergence; details: Ambrosia artemisiifolia, pre-emergence, 240 h, 0 to 100 scale where 0 is no effect and 100 is complete control, read-out: Ragweed plant response rating; for pest or weed control at 31 g/ha: 31 g ai/ha, Preemergence; for pest or weed control at 125 g/ha: 125 g ai/ha, preemergence, visual injury rating, approximately 10 d
Method in brief: as §1

[6] = test system: ryegrass, Italian (Italian ryegrass, Lolium multiflorum); assay: Test A preemergence; details: Lolium multiflorum, pre-emergence, 240 h, 0 to 100 scale where 0 is no effect and 100 is complete control, read-out: Ryegrass, Italian plant response rating; for pest or weed control at 31 g/ha: 31 g ai/ha, Preemergence; for pest or weed control at 125 g/ha: 125 g ai/ha, preemergence, visual injury rating, approximately 10 d
Method in brief: as §1

[7] = test system: Galium (catchweed bedstraw, Galium aparine); assay: Test A postemergence; details: Galium, post-emergence, 240 h, read-out: Galium plant response rating (0 to 100 scale); for pest or weed control at 125 g/ha: 125 g ai/ha, postemergence, visual injury vs untreated controls after approx. 10 d, 0 = no effect, 100 = complete control; for pest or weed control at 31 g/ha: Postemergence, 31 g ai/ha, 0 is no effect, 100 is complete control
Method in brief: as §1

[8] = test system: Kochia (Kochia scoparia); assay: Test A postemergence; details: Bassia scoparia, post-emergence, 240 h, read-out: Kochia plant response rating (0 to 100 scale); for pest or weed control at 125 g/ha: 125 g ai/ha, postemergence, visual injury vs untreated controls after approx. 10 d, 0 = no effect, 100 = complete control; for pest or weed control at 31 g/ha: Postemergence, 31 g ai/ha, 0 is no effect, 100 is complete control
Method in brief: as §1

[9] = test system: barnyardgrass (Echinochloa crus-galli); assay: Test A postemergence; details: Echinochloa crus-galli, post-emergence, 240 h, read-out: Barnyardgrass plant response rating (0 to 100 scale); for pest or weed control at 125 g/ha: 125 g ai/ha, postemergence, visual injury vs untreated controls after approx. 10 d, 0 = no effect, 100 = complete control; for pest or weed control at 31 g/ha: Postemergence, 31 g ai/ha, 0 is no effect, 100 is complete control
Method in brief: as §1

[10] = test system: blackgrass (Alopecurus myosuroides); assay: Test A postemergence; details: Alopecurus myosuroides, post-emergence, 240 h, read-out: Blackgrass plant response rating (0 to 100 scale); for pest or weed control at 125 g/ha: 125 g ai/ha, postemergence, visual injury vs untreated controls after approx. 10 d, 0 = no effect, 100 = complete control; for pest or weed control at 31 g/ha: Postemergence, 31 g ai/ha, 0 is no effect, 100 is complete control
Method in brief: as §1

[11] = test system: corn (Zea mays); assay: Test A postemergence; details: Zea mays, post-emergence, 240 h, read-out: Corn plant response rating (0 to 100 scale); for plant injury at 125 g/ha: 125 g ai/ha, postemergence, visual injury vs untreated controls after approx. 10 d, 0 = no effect, 100 = complete control; for plant injury at 31 g/ha: Postemergence, 31 g ai/ha, 0 is no effect, 100 is complete control
Method in brief: as §1

[12] = test system: giant foxtail (Setaria faberii); assay: Test A postemergence; details: Setaria faberi, post-emergence, 240 h, read-out: Foxtail, Giant plant response rating (0 to 100 scale); for pest or weed control at 125 g/ha: 125 g ai/ha, postemergence, visual injury vs untreated controls after approx. 10 d, 0 = no effect, 100 = complete control; for pest or weed control at 31 g/ha: Postemergence, 31 g ai/ha, 0 is no effect, 100 is complete control
Method in brief: as §1

[13] = test system: pigweed (Amaranthus retroflexus); assay: Test A postemergence; details: Amaranthus retroflexus, post-emergence, 240 h, read-out: Pigweed plant response rating (0 to 100 scale); for pest or weed control at 125 g/ha: 125 g ai/ha, postemergence, visual injury vs untreated controls after approx. 10 d, 0 = no effect, 100 = complete control; for pest or weed control at 31 g/ha: Postemergence, 31 g ai/ha, 0 is no effect, 100 is complete control
Method in brief: as §1

[14] = test system: ragweed (common ragweed, Ambrosia elatior); assay: Test A postemergence; details: Ambrosia artemisiifolia, post-emergence, 240 h, read-out: Ragweed plant response rating (0 to 100 scale); for pest or weed control at 125 g/ha: 125 g ai/ha, postemergence, visual injury vs untreated controls after approx. 10 d, 0 = no effect, 100 = complete control; for pest or weed control at 31 g/ha: Postemergence, 31 g ai/ha, 0 is no effect, 100 is complete control
Method in brief: as §1

[15] = test system: ryegrass, Italian (Italian ryegrass, Lolium multiflorum); assay: Test A postemergence; details: Lolium multiflorum, post-emergence, 240 h, read-out: Ryegrass, Italian plant response rating (0 to 100 scale); for pest or weed control at 125 g/ha: 125 g ai/ha, postemergence, visual injury vs untreated controls after approx. 10 d, 0 = no effect, 100 = complete control; for pest or weed control at 31 g/ha: Postemergence, 31 g ai/ha, 0 is no effect, 100 is complete control
Method in brief: as §1

[16] = test system: wheat (Triticum aestivum); assay: Test A postemergence; details: Triticum aestivum, post-emergence, 240 h, Postemergence, 31 g ai/ha; 0 is no effect, 100 is complete control; read-out: Wheat plant response rating (0 to 100 scale)
Method in brief: as §1

[17] = test system: barnyardgrass (Echinochloa crus-galli); assay: Test B flooded paddy test; details: Echinochloa crus-galli, 250 g ai/ha, Flood; 0 to 100 scale where 0 is no effect and 100 is complete control; read-out: Barnyardgrass plant response rating
Method in brief: (§2)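 Compound goes directly into floodwater once pots are flooded 3 cm above soil, targeting plants at two leaves; the water depth is then held for the test duration. Plants sit 13–15 d in a greenhouse and are rated visually, 100 denoting complete control.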

[18] = test system: ducksalad (Heteranthera limosa); assay: Test B flooded paddy test; details: Heteranthera limosa, 250 g ai/ha, Flood; 0 to 100 scale where 0 is no effect and 100 is complete control; read-out: Ducksalad plant response rating
Method in brief: as §2

[19] = test system: rice (Oryra sativa); assay: Test B flooded paddy test; details: Oryza sativa, 250 g ai/ha, Flood; 0 to 100 scale where 0 is no effect and 100 is complete control; read-out: Rice plant response rating
Method in brief: as §2

[20] = test system: sedge, umbrella (small-flower umbrella sedge, Cyperus difformis); assay: Test B flooded paddy test; details: Cyperus difformis, 250 g ai/ha, Flood; 0 to 100 scale where 0 is no effect and 100 is complete control; read-out: Sedge, Umbrella plant response rating
Method in brief: as §2

| SMILES | pest or weed control at 31 g/ha [1] [%] | pest or weed control at 125 g/ha [1] [%] | pest or weed control at 31 g/ha [2] [%] | pest or weed control at 125 g/ha [2] [%] | pest or weed control at 31 g/ha [3] [%] | pest or weed control at 125 g/ha [3] [%] | pest or weed control at 31 g/ha [4] [%] | pest or weed control at 125 g/ha [4] [%] | pest or weed control at 31 g/ha [5] [%] | pest or weed control at 125 g/ha [5] [%] | pest or weed control at 31 g/ha [6] [%] | pest or weed control at 125 g/ha [6] [%] | pest or weed control at 125 g/ha [7] [%] | pest or weed control at 31 g/ha [7] [%] | pest or weed control at 125 g/ha [8] [%] | pest or weed control at 31 g/ha [8] [%] | pest or weed control at 125 g/ha [9] [%] | pest or weed control at 31 g/ha [9] [%] | pest or weed control at 125 g/ha [10] [%] | pest or weed control at 31 g/ha [10] [%] | also measured |
| --- | --- | --- | --- | --- | --- | --- | --- | --- | --- | --- | --- | --- | --- | --- | --- | --- | --- | --- | --- | --- | --- |
| CN1C[C@H](c2ccc(F)c(Oc3ccccc3)c2)[C@@H](C(=O)Nc2cccc(F)c2F)C1=O [Compound 1259] | 0 | 0 | 0 | 60 | 40 | 90 | 30 | 30 | 0 | 0 | 0 | 30 | 80 | 60 | 0 | 0 | 80 | 30 | 0 | 0 | plant injury at 125 g/ha [11]: 70%; plant injury at 31 g/ha [11]: 0%; pest or weed control at 125 g/ha [12]: 70%; pest or weed control at 31 g/ha [12]: 30%; pest or weed control at 125 g/ha [13]: 60%; pest or weed control at 31 g/ha [13]: 40%; pest or weed control at 125 g/ha [14]: 0%; pest or weed control at 31 g/ha [14]: 0%; pest or weed control at 125 g/ha [15]: 0%; pest or weed control at 31 g/ha [15]: 0%; plant injury at 31 g/ha [16]: 0%; pest or weed control at 250 g/ha [17]: 0%; pest or weed control at 250 g/ha [18]: 0%; pest or weed control at 250 g/ha [19]: 0%; pest or weed control at 250 g/ha [20]: 0% |
| Cc1c(F)cccc1NC(=O)[C@H]1C(=O)N(C)C[C@@H]1c1ccc(C(F)F)cc1 [Compound 1261] | 70 | 80 | 90 | 90 | 90 | 90 | 0 | 20 | 50 | 50 | 20 | 30 | 60 | 50 | 50 | 20 | 90 | 90 | 60 | 40 | plant injury at 125 g/ha [11]: 80%; plant injury at 31 g/ha [11]: 50%; pest or weed control at 125 g/ha [12]: 90%; pest or weed control at 31 g/ha [12]: 90%; pest or weed control at 125 g/ha [13]: 30%; pest or weed control at 31 g/ha [13]: 0%; pest or weed control at 125 g/ha [14]: 30%; pest or weed control at 31 g/ha [14]: 0%; pest or weed control at 125 g/ha [15]: 50%; pest or weed control at 31 g/ha [15]: 20%; plant injury at 31 g/ha [16]: 20%; pest or weed control at 250 g/ha [17]: 75%; pest or weed control at 250 g/ha [18]: 100%; pest or weed control at 250 g/ha [19]: 50%; pest or weed control at 250 g/ha [20]: 0% |
